US20170165293A1, “METHOD AND APPARATUS FOR SCAVENGING PLASMA FREE HEMOGLOBIN” (GENO LLC, priority 2015, published 2017)
Read-outs that look alike come from different tables or passages of the source.

Columns and labels:
[1] = tested on: NO; details: cited from earlier work; for NO consumption ability of plasma compared to controls with infused albumin and saline: samples collected after infusion, both p<0.0001
[2] = tested on: canines; details: cited from earlier work; for mean SVRI compared to controls (albumin and saline) / mean MAP compared to controls (albumin and saline): 1-3 hr, after 1-hour infusion; for mean SVRI compared to controls (albumin and saline): oxyHb p<0.0001, metHb p=0.04; for mean MAP compared to controls (albumin and saline): oxyHb p<0.0001, metHb p=0.05
[3] = several time points; cited from earlier work
[4] = tested on: HIF; details: cited from earlier work
[5] = tested on: LPS-induced lung injury; format: in vivo, mice
[6] = molecular target: cell-free Hb (Homo sapiens, UniProt P68871+P69905); details: cited from earlier work
Sequence of cell-free Hb (P69905 2-142 limits assumed): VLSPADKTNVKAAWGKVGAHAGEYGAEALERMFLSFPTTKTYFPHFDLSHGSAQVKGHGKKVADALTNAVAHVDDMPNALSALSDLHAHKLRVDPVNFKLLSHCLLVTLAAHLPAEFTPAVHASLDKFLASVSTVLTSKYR
Sequence of cell-free Hb (P68871 2-147 limits assumed): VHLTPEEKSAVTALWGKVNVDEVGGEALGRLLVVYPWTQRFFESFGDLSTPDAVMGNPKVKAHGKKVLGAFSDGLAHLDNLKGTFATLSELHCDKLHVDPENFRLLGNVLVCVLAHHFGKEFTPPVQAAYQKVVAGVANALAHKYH

[7] = tested on: polymicrobial sepsis-induced lung injury; details: in vivo
[8] = tested on: free water-induced intravascular hemolysis; details: in vivo; cited from earlier work
[9] = tested on: chrondrocytes; details: cited from earlier work
[10] = tested on: brain ischemia-reperfusion injury; details: acute rat model, focal ischemia-reperfusion, inhaled; cited from earlier work

## oxyHb: cell-free oxyhemoglobin (Fe2+-O2) infused into animals
[1]; among infused groups
  increase in NO consumption ability of plasma, ranking: highest
[1]
  NO consumption ability of plasma compared to controls with infused albumin and saline: Elevated
[2]
  mean SVRI compared to controls (albumin and saline): significant elevations
  mean MAP compared to controls (albumin and saline): significant elevations
[2]; 2 hours after the oxyHb infusion ended, same rate as during the infusion
  MAP: continued to steadily increase
[2]; oxyHb infusion, from 0 to 3 hr, p<0.0001
  increase in MAP: 27%
[3]
  mean plasma nitrite levels compared to controls: similar

## nitric oxide [inhaled NO]
[4]; high doses and after 30 minutes
  effect on HIF: inhibitory
[4]; low dose, for 30 minutes, during hypoxia
  effect on HIF: stimulates
[5]; mouse, in vivo
  LPS-induced pulmonary early and late NF-κB activation: inhibited
  cell apoptosis: down-regulated
  lung injury: significantly improved
  pulmonary inflammation: down-regulated
[6]; animals breathing NO (n=2)
  increase in SVRI on infusion of cell-free Hb: attenuated
  increase in pulmonary vascular resistance index on infusion of cell-free Hb: attenuated
  species of the cell-free Hb: converted to methemoglobin
[7]
  lung injury in polymicrobial sepsis: significantly attenuated
[8]
  MAP: no net effect
  SVRI: no net effect
  effect of sodium nitroprusside on CI during hemolysis: restored
  effect of sodium nitroprusside on SVRI during hemolysis: restored
  hypertensive effects associated with intravascular free water induced hemolysis and release of cell-free oxyHb: completely eliminates
  impairment in the ability of the kidneys to compensate for hyponatremia (serum sodium levels): attenuated
  increase in MAP caused by free water-induced intravascular hemolysis: attenuated
  increase in SVRI caused by free water-induced intravascular hemolysis: attenuated
  six-hour creatinine clearance: intermediate clearance
  systemic blood pressure: miniscule or no measurable effects
  total plasma Hb composition: predominantly methemoglobin
  vasoconstriction: prevent vasoconstriction

## cell-free Hb: cell-free hemoglobin infused with or without inhaled NO
[6]; animals breathing air (n=2)
  species of the cell-free Hb: remained predominantly oxyhemoglobin
[6]; infusion of cell-free Hb
  SVRI: increases
  pulmonary vascular resistance index: increases

## [HH] [H2, hydrogen]
[5]; H2 and/or NO treatment
  LPS-induced pulmonary early and late NF-κB activation: inhibited
  cell apoptosis: down-regulated
  pulmonary inflammation: down-regulated
[5]; intratracheal LPS, 2% H2 and/or 20 ppm NO for 3 hours starting at 5 minutes or 3 hours after LPS
  lung injury: significantly improved
[9]
  generation of hydroxyl radicals and peroxynitrite: selectively reduce
[7]
  lung injury in polymicrobial sepsis: significantly attenuated
[10]
  brain injury: markedly suppressed

## metHb: cell-free ferric methemoglobin (Fe3+) infused into animals
[1]; p=0.009
  NO consumption by plasma relative to the infused oxyHb-containing plasma: 10 fold lower
[1]
  NO consumption ability of plasma compared to controls with infused albumin and saline: Elevated
[2]
  mean SVRI compared to controls (albumin and saline): elevations
  mean MAP compared to controls (albumin and saline): elevations
[2]; cell-free metHb infusions, after being reduced to oxyHb
  vascular pressures: increase
[2]; in vivo
  clearance / stability in plasma compared with cell-free oxyHb: cleared faster and/or is less stable
[2]; similar concentrations of Hb solutions over 1 hour, p=0.006
  increase in MAP compared to the oxyHb infusions: significantly less of an increase
[2]; similar concentrations of Hb solutions over 1 hour, p=0.04
  increase in SVRI compared to the oxyHb infusions: significantly less of an increase
[2]; throughout the experiment
  correlation of metHb levels converted from infused oxyHb with changes in MAP: not correlated
[3]
  mean plasma nitrite levels compared to controls: similar
